Source: ChEMBL document CHEMBL1143446, “Azaflavones compared to flavones as ligands to the benzodiazepine binding site of brain GABA(A) receptors” (Bioorg Med Chem Lett, 2008)

Columns and labels:
[1] = target: GABA A receptor alpha-5/beta-3/gamma-2 (Rattus norvegicus, UniProt P18508+P19969+P63079); assay: Displacement of [3H]flumazenil in rat GABAA alpha-5-beta-3-gamma-2 receptor expressed in HEK293 cells; type: cell-based
[2] = target: GABA-A receptor; alpha-2/beta-3/gamma-2 (Rattus norvegicus); assay: Displacement of [3H]flumazenil in rat GABAA alpha-2-beta-3-gamma-2 receptor expressed in HEK293 cells
Rattus norvegicus [3] = organism: Rattus norvegicus; assay: Selectivity ratio of Ki for rat GABAA alpha-2-beta-3-gamma-2 receptor to Ki for GABAA alpha-1-beta-3-gamma-2 receptor
[4] = Displacement of [3H]flumazenil from GABAA in rat cortical tissue
Rattus norvegicus [5] = organism: Rattus norvegicus; assay: Selectivity ratio of Ki for rat GABAA alpha-3-beta-3-gamma-2 receptor to Ki for GABAA alpha-1-beta-3-gamma-2 receptor
[6] = target: GABA-A receptor; alpha-1/beta-3/gamma-2 (Rattus norvegicus); assay: Displacement of [3H]flumazenil in rat GABAA alpha-1-beta-3-gamma-2 receptor expressed in HEK293 cells
[7] = target: Gamma-aminobutyric acid receptor subunit alpha-3 (Rattus norvegicus, UniProt P18508+P20236+P63079); assay: Displacement of [3H]flumazenil in rat GABAA alpha-3-beta-3-gamma-2 receptor expressed in HEK293 cells; type: cell-based
Chain of Gamma-aminobutyric acid receptor subunit alpha-3 (P20236 whole entry, one chain of several): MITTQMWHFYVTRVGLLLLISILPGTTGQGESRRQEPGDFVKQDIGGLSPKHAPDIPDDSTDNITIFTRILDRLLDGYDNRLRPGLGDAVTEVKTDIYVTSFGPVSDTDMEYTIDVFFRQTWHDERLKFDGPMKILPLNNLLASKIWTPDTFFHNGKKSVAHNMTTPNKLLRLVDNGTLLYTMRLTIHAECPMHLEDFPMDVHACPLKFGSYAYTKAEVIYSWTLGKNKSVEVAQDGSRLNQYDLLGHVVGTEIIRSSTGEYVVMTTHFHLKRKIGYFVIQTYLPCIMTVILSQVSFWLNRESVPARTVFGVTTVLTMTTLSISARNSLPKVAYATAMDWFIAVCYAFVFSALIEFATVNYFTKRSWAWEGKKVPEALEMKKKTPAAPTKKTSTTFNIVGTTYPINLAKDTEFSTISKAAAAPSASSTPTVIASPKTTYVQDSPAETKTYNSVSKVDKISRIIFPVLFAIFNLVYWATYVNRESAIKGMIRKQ

Chain of GABA A receptor alpha-5/beta-3/gamma-2 (P18508 whole entry): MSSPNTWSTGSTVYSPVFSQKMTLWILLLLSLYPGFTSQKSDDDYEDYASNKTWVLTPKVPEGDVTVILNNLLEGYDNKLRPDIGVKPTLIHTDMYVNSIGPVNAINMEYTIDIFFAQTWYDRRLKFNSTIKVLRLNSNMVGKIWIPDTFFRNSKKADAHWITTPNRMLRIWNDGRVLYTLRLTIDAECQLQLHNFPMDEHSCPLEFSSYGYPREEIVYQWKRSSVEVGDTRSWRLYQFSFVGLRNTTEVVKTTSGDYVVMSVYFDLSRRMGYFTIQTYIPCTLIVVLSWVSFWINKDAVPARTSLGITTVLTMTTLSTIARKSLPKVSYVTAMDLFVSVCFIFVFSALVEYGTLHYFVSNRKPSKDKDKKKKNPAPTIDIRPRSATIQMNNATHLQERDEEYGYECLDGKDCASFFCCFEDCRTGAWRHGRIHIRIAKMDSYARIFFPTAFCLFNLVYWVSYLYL
Chain of GABA A receptor alpha-5/beta-3/gamma-2 (P19969 whole entry): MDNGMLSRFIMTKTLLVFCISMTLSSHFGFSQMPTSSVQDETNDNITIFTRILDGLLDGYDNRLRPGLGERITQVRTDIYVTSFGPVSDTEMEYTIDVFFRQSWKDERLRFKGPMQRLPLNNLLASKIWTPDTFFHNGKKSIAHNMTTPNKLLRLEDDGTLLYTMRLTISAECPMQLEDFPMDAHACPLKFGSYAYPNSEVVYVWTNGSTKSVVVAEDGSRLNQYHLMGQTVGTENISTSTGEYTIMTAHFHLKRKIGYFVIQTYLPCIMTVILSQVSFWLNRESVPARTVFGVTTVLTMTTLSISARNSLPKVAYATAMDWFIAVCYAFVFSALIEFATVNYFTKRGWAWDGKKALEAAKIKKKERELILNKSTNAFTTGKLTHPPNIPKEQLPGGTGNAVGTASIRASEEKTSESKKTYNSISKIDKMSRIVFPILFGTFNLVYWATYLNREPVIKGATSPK
Chain of GABA A receptor alpha-5/beta-3/gamma-2 (P63079 whole entry): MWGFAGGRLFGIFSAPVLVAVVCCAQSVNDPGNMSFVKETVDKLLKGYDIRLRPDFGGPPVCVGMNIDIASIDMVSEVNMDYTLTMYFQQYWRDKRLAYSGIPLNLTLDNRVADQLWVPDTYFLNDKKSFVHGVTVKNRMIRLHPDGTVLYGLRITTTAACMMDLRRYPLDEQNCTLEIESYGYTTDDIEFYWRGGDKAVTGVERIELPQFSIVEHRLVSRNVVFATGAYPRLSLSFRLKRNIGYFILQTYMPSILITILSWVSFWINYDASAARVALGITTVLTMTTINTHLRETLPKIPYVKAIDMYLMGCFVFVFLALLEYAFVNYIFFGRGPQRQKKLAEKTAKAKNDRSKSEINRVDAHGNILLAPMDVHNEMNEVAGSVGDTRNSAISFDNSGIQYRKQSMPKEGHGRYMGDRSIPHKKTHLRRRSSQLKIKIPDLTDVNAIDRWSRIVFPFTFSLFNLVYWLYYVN

Ki [1] | Ki [2] | Selectivity ratio (Rattus norvegicus [3]) | Ki [4] | Selectivity ratio (Rattus norvegicus [5]) | Ki [6] | Ki [7] | SMILES
0.0073 µM | 0.018 µM | 5 | 0.002 µM | 8 | 0.0012 µM | 0.031 µM | Cc1ccc2[nH]c(-c3cc(Cc4ccccc4)ccc3O)cc(=O)c2c1
0.0024 µM | 0.019 µM | – | 0.0006 µM | – | 0.0008 µM | 0.011 µM | Cc1ccc2oc(-c3cc(Cc4ccccc4)ccc3O)cc(=O)c2c1
– | – | – | 0.84 µM | – | – | – | Cc1ccc2nc(-c3cc(Br)ccc3O)cc(N3CCOCC3)c2c1
– | – | 5 | 0.0009 µM | 8 | – | – | Cc1ccc2oc(-c3cc(Br)ccc3O)cc(=O)c2c1
– | 0.12 µM | – | – | – | 0.039 µM | 0.099 µM | Cc1ccc2nc(-c3cc(Br)ccc3O)cc(O)c2c1
– | – | – | 0.18 µM | – | – | – | CCc1ccc2oc(-c3ccccc3)cc(=O)c2c1
– | – | – | 0.4 µM | – | – | – | Cc1ccc2nc(-c3cc(Cc4ccccc4)ccc3O)cc(N3CCOCC3)c2c1
– | – | 5 | 1.1 µM | 8 | – | – | Cc1ccc2c(c1)c(=O)cc(-c1cc(Br)ccc1O)n2C
– | – | 5 | 0.022 µM | 8 | – | – | Cc1ccc2[nH]c(-c3cc(Br)ccc3O)cc(=O)c2c1
– | – | – | 0.73 µM | – | – | – | COc1ccc(Br)cc1-c1cc(=O)c2cc(C)ccc2[nH]1
– | – | – | > 1.5 µM | – | – | – | COc1ccc(Br)cc1-c1cc(=O)c2cc(C)ccc2o1
– | – | – | 1.2 µM | – | – | – | CCc1ccc2[nH]c(-c3ccccc3)cc(=O)c2c1
